# Measurements taken from patent publication US20250281467A1, “MODULATORS OF INTRACELLULAR CHLORIDE CONCENTRATION FOR USE IN THE TREATMENT OF COGNITIVE DECLINE” (FONDAZIONE ISTITUTO ITALIANO DI TECNOLOGIA, priority 2022, published 2025).
# Molecular target: T1, KCC2 (Homo sapiens, UniProt Q9H2X9)
# T1 sequence (Q9H2X9 1-1139): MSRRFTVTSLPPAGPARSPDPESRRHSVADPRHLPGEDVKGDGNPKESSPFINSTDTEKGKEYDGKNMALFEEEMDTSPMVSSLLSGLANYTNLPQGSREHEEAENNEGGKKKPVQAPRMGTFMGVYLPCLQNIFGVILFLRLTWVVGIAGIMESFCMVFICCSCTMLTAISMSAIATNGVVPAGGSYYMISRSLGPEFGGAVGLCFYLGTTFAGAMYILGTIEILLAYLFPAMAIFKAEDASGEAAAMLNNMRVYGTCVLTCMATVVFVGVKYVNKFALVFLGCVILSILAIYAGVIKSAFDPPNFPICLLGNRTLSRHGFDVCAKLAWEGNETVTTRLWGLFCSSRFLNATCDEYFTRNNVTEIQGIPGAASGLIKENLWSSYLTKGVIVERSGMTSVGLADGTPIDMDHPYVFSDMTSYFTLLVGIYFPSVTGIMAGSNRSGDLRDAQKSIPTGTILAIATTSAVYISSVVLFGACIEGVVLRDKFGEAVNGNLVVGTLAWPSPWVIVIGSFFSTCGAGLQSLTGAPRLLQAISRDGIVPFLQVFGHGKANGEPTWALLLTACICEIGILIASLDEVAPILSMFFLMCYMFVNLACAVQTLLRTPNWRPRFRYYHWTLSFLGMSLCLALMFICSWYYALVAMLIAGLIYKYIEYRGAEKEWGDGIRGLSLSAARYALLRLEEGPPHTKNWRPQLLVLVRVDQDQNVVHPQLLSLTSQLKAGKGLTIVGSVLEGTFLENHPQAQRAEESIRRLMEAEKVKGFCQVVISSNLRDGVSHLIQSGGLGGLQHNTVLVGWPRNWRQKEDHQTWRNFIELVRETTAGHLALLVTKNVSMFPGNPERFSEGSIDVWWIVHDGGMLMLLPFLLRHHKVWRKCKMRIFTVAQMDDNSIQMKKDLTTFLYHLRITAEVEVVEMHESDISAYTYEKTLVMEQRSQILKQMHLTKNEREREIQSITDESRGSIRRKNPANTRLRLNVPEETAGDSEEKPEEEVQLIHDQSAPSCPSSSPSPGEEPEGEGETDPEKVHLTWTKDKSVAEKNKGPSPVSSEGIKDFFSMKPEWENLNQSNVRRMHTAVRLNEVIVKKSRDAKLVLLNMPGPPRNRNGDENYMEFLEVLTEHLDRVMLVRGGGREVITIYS
# Test: inhibitory activity measured in vitro on KCC2
# Type: biochemical
# Conditions: IC50, in vitro on KCC2
row,Compound,IC50 [µM]
1,CC(=O)N1CCCC1(CC1CCCCC1)C(=O)OCc1ccccc1 (stereo not shown) [Compound 24],4

# Same assay, conditions: in vitro on KCC2; read-out: IC50
row,Compound,IC50 [µM]
1,CC(=O)N1CCCC1(Cc1ccccc1)C(=O)OCc1ccccc1 (stereo not shown) [Compound 21],0.79
2,CC(=O)N1CCCC1(CCc1ccccc1)C(=O)OCc1ccccc1 (stereo not shown) [Compound 22],8
3,CCC1(C(=O)OCc2ccccc2)CCCN1C(C)=O (stereo not shown) [Compound 23],2.3
4,CC(=O)N1CCCC1(Cc1ccncc1)C(=O)OCc1ccccc1 (stereo not shown) [Compound 25],2
5,CC(=O)N1CCCC1(Cc1ccsc1)C(=O)OCc1ccccc1 (stereo not shown) [Compound 26],0.79
6,CC(=O)N1CCCC1(Cc1ccc(C)cc1)C(=O)OCc1ccccc1 (stereo not shown) [Compound 27],0.79
7,COc1ccc(CC2(C(=O)OCc3ccccc3)CCCN2C(C)=O)cc1 (stereo not shown) [Compound 28],0.4
8,CC(=O)N1CCCC1(Cc1ccc(C(F)(F)F)cc1)C(=O)OCc1ccccc1 (stereo not shown) [Compound 29],0.63
9,CC(=O)N1CCCC1(Cc1ccc(F)cc1)C(=O)OCc1ccccc1 (stereo not shown) [Compound 30],0.2
10,CC(=O)N1CCCC1(Cc1ccc(Cl)cc1)C(=O)OCc1ccccc1 (stereo not shown) [Compound 31],0.32
11,CC(=O)N1CCCC1(Cc1ccc(S(C)(=O)=O)cc1)C(=O)OCc1ccccc1 (stereo not shown) [Compound 32],1
12,CC(=O)N1CCCC1(Cc1ccc(C#N)cc1)C(=O)OCc1ccccc1 (stereo not shown) [Compound 33],0.16
13,CC(=O)N1CCCC1(Cc1cccc(C#N)c1)C(=O)OCc1ccccc1 (stereo not shown) [Compound 34],0.32
14,CC(=O)N1CCCC1(Cc1ccccc1C#N)C(=O)OCc1ccccc1 (stereo not shown) [Compound 35],5
15,CC(=O)N1CCCC1(Cc1cccc(S(C)(=O)=O)c1)C(=O)OCc1ccccc1 (stereo not shown) [Compound 36],0.25
16,CC(=O)N1CCCC1(Cc1cccc(C(F)(F)F)c1)C(=O)OCc1ccccc1 (stereo not shown) [Compound 37],0.08
17,CC(=O)N1CCCC1(Cc1ccc(F)c(C(F)(F)F)c1)C(=O)OCc1ccccc1 (stereo not shown) [Compound 38],0.06
18,COc1ccc(CC2(C(=O)OCc3ccccc3)CCCN2C(C)=O)cc1C(F)(F)F (stereo not shown) [Compound 39],0.05
19,CC(=O)N1CCCC1(Cc1ccc(F)cc1C(F)(F)F)C(=O)OCc1ccccc1 (stereo not shown) [Compound 40],4
20,CC(=O)N1CCCC1(Cc1ccccc1)C(=O)NCc1ccccc1 (stereo not shown) [Compound 41],100
21,CC(=O)N1CCCC1(Cc1ccccc1)C(=O)N(C)Cc1ccccc1 (stereo not shown) [Compound 42],32
22,CC(=O)N1CCCC1(Cc1ccccc1)C(=O)O (stereo not shown) [Compound 43],> 100
23,COC(=O)C1(Cc2ccccc2)CCCN1C(C)=O (stereo not shown) [Compound 44],> 100
24,CC(=O)N1CCCC1(Cc1ccccc1)C(=O)OC(C)c1ccccc1 (stereo not shown) [Compound 45],4

row,Compound,IC50 [µM]
1,CC(=O)N1CCCC1(Cc1ccccc1)C(=O)OCCc1ccccc1 (stereo not shown) [Compound 46],10
2,CC(=O)N1CCCC1(Cc1ccccc1)C(=O)OCC1CCCCC1 (stereo not shown) [Compound 47],63
3,CC(=O)N1CCCC1(Cc1ccccc1)C(=O)OCc1ccncc1 (stereo not shown) [Compound 48],> 100
4,CC(=O)N1CCCC1(Cc1ccccc1)C(=O)OCc1ccccc1Cl (stereo not shown) [Compound 49],6
5,CC(=O)N1CCCC1(Cc1ccccc1)C(=O)OCc1cccc(Cl)c1 (stereo not shown) [Compound 50],2.5
6,CC(=O)N1CCCC1(Cc1ccccc1)C(=O)OCc1ccc(Cl)cc1 (stereo not shown) [Compound 51],1.3
7,CC(=O)N1CCCC1(Cc1ccccc1)C(=O)OCc1ccc(C)cc1 (stereo not shown) [Compound 52],0.79
8,CC(=O)N1CCCC1(Cc1ccccc1)C(=O)OCc1ccc(C(F)(F)F)cc1 (stereo not shown) [Compound 53],5
9,CC(=O)N1CCCC1(Cc1ccccc1)C(=O)OCc1ccc(S(C)(=O)=O)cc1 (stereo not shown) [Compound 54],> 100
10,O=C(OCc1ccccc1)C1(Cc2ccccc2)CCCN1 (stereo not shown) [Compound 55],> 100
11,CCN1CCCC1(Cc1ccccc1)C(=O)OCc1ccccc1 (stereo not shown) [Compound 56],> 100
12,CS(=O)(=O)N1CCCC1(Cc1ccccc1)C(=O)OCc1ccccc1 (stereo not shown) [Compound 57],1.6
13,COC(=O)N1CCCC1(Cc1ccccc1)C(=O)OCc1ccccc1 (stereo not shown) [Compound 58],0.4
14,CCNC(=O)N1CCCC1(Cc1ccccc1)C(=O)OCc1ccccc1 (stereo not shown) [Compound 59],2
15,CCC(=O)N1CCCC1(Cc1ccccc1)C(=O)OCc1ccccc1 (stereo not shown) [Compound 60],1.2
16,O=C(C1CC1)N1CCCC1(Cc1ccccc1)C(=O)OCc1ccccc1 (stereo not shown) [Compound 61],0.32
17,O=C(c1ccccc1)N1CCCC1(Cc1ccccc1)C(=O)OCc1ccccc1 (stereo not shown) [Compound 62],4
18,CC(=O)N1CCCC1(Cc1ccccc1)C(=O)CCc1ccccc1 (stereo not shown) [Compound 63],0.3
19,CC(=O)N1CCCC1(Cc1ccc(F)cc1)C(=O)CCc1ccc(F)cc1 (stereo not shown) [Compound 64],0.2
20,CC(=O)N1c2ccccc2CC1(Cc1ccccc1)C(=O)OCc1ccccc1 (stereo not shown) [Compound 65],0.2
21,CC(=O)N1CCCC1(Cc1ccccc1)C(=O)OCc1ccccc1 (stereo not shown) [Compound 66],20
22,CC(=O)N1CCCC1(Cc1ccccc1)C1=N[C@H](c2ccccc2)CO1 (stereo partly shown) [Compound 67],1.3
23,CC(=O)N1CCCC1(Cc1ccccc1)c1nc(-c2ccccc2)co1 (stereo not shown) [Compound 68],12.6
24,O=C1CCCC2CCC(Cc3ccccc3)(C(=O)OCc3ccccc3)N12 (stereo not shown) [Compound 69],1

# Test system: mice C57BL/6J aged >24 months
# Test: open field test after diazepam in elderly and young mice
# Type: in vivo
# Conditions: elderly mice (>24 months), diazepam 2 mg/kg, compared to elderly mice treated with vehicle or young mice treated with diazepam
# Description: FIG. 2 illustrates the evaluation of the effect of benzodiazepines in elderly mice which is indicative of a potentiated GABAergic transmission. a) Quantification of the immobility time during the open field test of mice treated with vehicle (young, n=7, elderly, n=6) or diazepam (young, n=7, elderly, n=7) (two-way ANOVA, Tukey post hoc test, *** P<0.001). b) Quantification of the distance travelled during the open field test by mice treated with vehicle (young, n=7, elderly, n=6) or diazepam (young, n=7, elderly, n=7) (two-way ANOVA, Tukey post hoc test, ** P<0.01, *** P<0.001).
# In fact, benzodiazepines are positive allosteric modulators of GABAAR. Benzodiazepines are commonly used as anxiolytic drugs, but can produce anxiogenic or highly sedative effects depending on the polarity of GABAergic transmission. To test the reaction of elderly mice to benzodiazepines, mice C57BL/6J aged >24 months and 2-month old controls C57BL/6J were treated with diazepam (2 mg/kg in saline solution) or vehicle (2% DMSO in saline solution). The open field test was then carried out to evaluate locomotor activity and the level of anxiety of the mice tested. […] This is indicative of an over-sedation reaction of the diazepam in the elderly mice, which may reflect the presence of hyper-inhibitory GABAergic transmission. This evidence is in accordance with the up-regulation of KCC2 (FIG. 1b).
Compound,distance travelled during the open field test,immobility time during the open field test
CN1C(=O)CN=C(c2ccccc2)c2cc(Cl)ccc21 [diazepam],significantly lower,significantly higher

# Test system: elderly mice
# Test: novel object recognition (NOR) test in elderly mice
# Type: in vivo
# Conditions: 1 mg/kg i.p., versus vehicle
# Description: FIG. 3 illustrates the evaluation of the efficacy of compound 32 (KCC2 inhibitor) to restore impaired memory in elderly mice. a) Quantification of the discrimination index of the NOR test in young (n=13) and elderly (n=10) mice (two tailed t-test, ** P<0.01). b) Quantification of the discrimination index of the NOR test in mice treated with vehicle (young, n=12, elderly, n=9) or compound 32 (young, n=10, elderly, n=6) (two-way ANOVA, Tukey post hoc test, ** P<0.01, ** P<0.001).
# To evaluate memory capacity in the elderly mice, the novel object recognition (NOR) test was conducted. This test evaluates the long-term object recognition memory by measuring the capacity of the mice to recognize a novel object compared to familiar objects. […] Subsequently, to test the ability of the non-selective KCC2 inhibitor, Compound 32, to restore poor memory, the NOR test was conducted in the presence of the drug. The mice were treated with compound 32 (1 mg/kg i.p.) or with the vehicle.
row,Compound,object recognition memory (discrimination index of the NOR test)
1,CC(=O)N1CCCC1(Cc1ccc(S(C)(=O)=O)cc1)C(=O)OCc1ccccc1 (stereo not shown) [Compound 32],significantly restored
